{"source": "patent US5459256A", "about": "“Lipophilic, aminohydrolase-activated prodrugs” (priority 1991, dated 1995)", "key": {"physchem": {"assay": "physchem", "details": "octanol/ph 7.0 buffer, pH 7, Log P", "experimental": "Measurement of Octanol-Water Partition Coefficients.\nn-Octanol-water partition coefficients (P) were determined by a microscale shake-flask procedure, (Ford, H. et al Abstracts of Papers, 200th National Meeting of the American Chemical Society, Washington, D.C.; American Chemical Society: Washington, D.C., 1990; CARB 13) which was modification of an earlier method (Nahum, A. & Horvath, C. J. Chromatogr. 1980, 192, 315). A 20 μL aliquot of a 0.5 mg/mL DMSO solution of the dideoxynucleoside was dissolved in 1.0 mL of octanol-saturated, pH 7.0, 0.01M potassium phosphate buffer. This was mixed thoroughly with 1.0 ml of buffer-saturated n-octanol in a 2-mL Mixxor apparatus at 24°-26° C. and then allowed to stand for 15 min. The phases were separated, centrifuged at 600×g for 5 min, and the relative concentration of sample in each phase determined by HPLC analysis of a 50 μl aliquot. The partition coefficient was calculated by dividing the absolute area of the appropriate integrated peak from the octanol phase by that of the buffer phase (Table I).\nOctanol/pH 7.0 buffer partition coefficients were determined using a newly developed microscale method. […] The addition of a methyl group normally increases the log P value of a compound by about 0.5."}, "[1]": {"test_system": "HIV-1/IIIB (CD4^+ ATH8 cells)", "assay": "HIV cytopathic effect inhibition assay in ATH8 cells (% protection)", "type": "cell-based", "details": "for inhibition at 10 µM: Human immunodeficiency virus 1, IIIB, ATH-8, 192 h", "experimental": "(§1) HIV Cytopathic Effect Inhibition Assay.\n(§2) The HIV cytopathic effect inhibition assay was performed as previously described. (Mitsuya, H. & Broder, S. Proc. Nat. Acad. Sci. USA 1986, 83, 1911) Briefly, 200,000 target CD4^+ ATH8 cells were exposed to cell-free HIV-1/IIIB at a dose of 43 (or 1087 for compound 1g) TCID50 (50% tissue culture infectious dose) for 1 h, resuspended in 2 ml of fresh culture media containing interleukin 2, and cultured at 37° C. with or without test compounds in 5% CO2 -containing humidified air. On day 8 in culture, the viable cells were counted by using the dye exclusion method. All compounds, including inactives, were evaluated a minimum of two times in separate experiments. Data reported in Table II are from representative tests. The % protection against the virus was determined by the following formula: 100 times [(the number of viable cells exposed to HIV-1 and cultured in the presence of the compound minus the number of viable cells exposed to HIV-1 and cultured in the absence of compound) divided by (the number of viable cells cultured alone minus the number of viable cells exposed to HIV-1 and cultured in the absence of the compound)]. The % toxicity of a compound on the target cells was determined by the following formula: 100 times [1 minus (the number of total viable cells cultured in the presence of the compound divided by the number of total viable cells cultured alone)]. Calculated percentages equal to or less than zero are expressed as 0%.\n^a ATH8 cells were exposed to HIV1/IIIB per cell for 1 hr and\ncultured in the presence of various concentrations of each compound. On\nday 8, the total viable cells were counted. Orders of numbers in the\ncolumn for concentrations correspond to the orders of numbers in other"}, "[2]": {"assay": "Toxicity on ATH8 target cells (% toxicity, dye exclusion)", "type": "cell-based", "details": "human, ath8 cells, % Toxicity", "experimental": "as §1\nas §2, with “(Mitsuya, H. & Broder, S. Proc. Nat. Acad. Sci. USA 1986, 83, 1911) Briefly, 200,000 target CD4^+ ATH8 cells were exposed to cell-free HIV-1/IIIB at a dose of 43 (or 1087 for compound 1g) TCID50 (50% tissue culture infectious dose) for 1 h, resuspended in 2 ml of fresh culture media containing interleukin 2, and cultured at 37° C. with or without test compounds in 5% CO2 -containing humidified air.” left out"}, "CD4^+ ATH8 cells": {"test_system": "CD4^+ ATH8 cells", "assay": "Toxicity on ATH8 target cells (% toxicity, dye exclusion)", "type": "cell-based", "details": "human", "experimental": "as §1\nas §2, with “(Mitsuya, H. & Broder, S. Proc. Nat. Acad. Sci. USA 1986, 83, 1911) Briefly, 200,000 target CD4^+ ATH8 cells were exposed to cell-free HIV-1/IIIB at a dose of 43 (or 1087 for compound 1g) TCID50 (50% tissue culture infectious dose) for 1 h, resuspended in 2 ml of fresh culture media containing interleukin 2, and cultured at 37° C. with or without test compounds in 5% CO2 -containing humidified air.” left out"}, "HIV": {"test_system": "HIV", "details": "cited from earlier work"}}, "note": "“Also recorded” adds a separate entry of the source.", "data": [{"smiles": "CNc1ncnc2c1ncn2[C@@H]1O[C@H](CO)C[C@@H]1F", "note": "[Compound 1f, N^6 -Methyl-9-(2'3'-dideoxy-2'-fluoro-β-D-arabinofuranosyl)adenine]", "values": [{"measurement": "logD", "setting": "physchem", "value": "0.27 ± 0.01"}, {"measurement": "% Protection", "setting": "[1]; 10 μM, with dCF (2 μM), 11520 min", "value": "< 10", "unit": "%"}, {"measurement": "anti-HIV activity in the presence of dCF (in words)", "setting": "[1]; ATH8 cells, dCF added", "value": "protection was either abolished or greatly decreased; also recorded: can have activity abolished"}, {"measurement": "anti-HIV activity (in words)", "setting": "[1]; ATH8 cells, no additive", "value": "that activity was reduced relative to 1a; also recorded: reproducible, albeit unspectacular, activity; also recorded: only moderate anti-HIV activity"}, {"measurement": "inhibition at 10 µM", "setting": "[1]; 10 μM, no additive (Table IV experiment)", "value": 13, "unit": "%"}, {"measurement": "inhibition at 10 µM", "setting": "[1]; 10 μM, with added ADA (0.7 U/ml)", "value": 90, "unit": "%"}, {"measurement": "cytotoxicity at 192 h, 20 µM", "setting": "[2]", "value": 0, "unit": "%"}, {"measurement": "% Toxicity", "setting": "CD4^+ ATH8 cells; 11520 min", "value": 11, "unit": "%"}, {"measurement": "% Toxicity", "setting": "CD4^+ ATH8 cells; ath8 cells, 192 h, 5 µM", "value": 3, "unit": "%"}, {"measurement": "% Toxicity", "setting": "CD4^+ ATH8 cells; ath8 cells, 192 h, 10 µM", "value": 7, "unit": "%"}, {"measurement": "activity against HIV in peripheral blood mononuclear cells (in words)", "setting": "HIV", "value": "the activity of 1f against HIV in peripheral blood mononuclear cells was recently reported"}]}]}
